Experiment [1] addresses T1, indoleamine 2,3-dioxygenases 2 (IDO2) (Homo sapiens, UniProt Q6ZQW0).
T1 construct: purchased BPS Bioscience, Inc. (San Diego, CA, USA)
T1 sequence (Q6ZQW0 1-407): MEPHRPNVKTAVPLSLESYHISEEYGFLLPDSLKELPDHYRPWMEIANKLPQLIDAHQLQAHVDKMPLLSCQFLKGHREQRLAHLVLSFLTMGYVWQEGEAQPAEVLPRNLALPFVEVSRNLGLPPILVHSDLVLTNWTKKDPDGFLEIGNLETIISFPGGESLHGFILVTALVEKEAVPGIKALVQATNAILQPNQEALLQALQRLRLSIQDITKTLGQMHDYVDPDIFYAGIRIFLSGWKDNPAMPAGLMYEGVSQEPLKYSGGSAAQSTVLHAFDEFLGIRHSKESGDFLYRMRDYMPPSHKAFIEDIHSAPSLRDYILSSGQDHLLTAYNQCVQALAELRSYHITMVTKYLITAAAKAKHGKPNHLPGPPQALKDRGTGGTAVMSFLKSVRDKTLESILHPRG
As to the kind of experiment: Universal IDO1/IDO2/TDO Inhibitor Screening Assay Kit, IDO2. The conditions noted are these: read-out: Inhibition (%) IDO2. The experiment is classed as biochemical. The method, then:
(§1) This colorimetric assay is based on the measurement of the ability of IDO1, IDO2 and TDO to convert L-tryptophan into N-formylkynurenine (NFK). The experiments were performed according to the manufacturer’s guidelines. The final concentration of the compounds and extracts in the reaction mixture was 100 µg/mL. The amount of NFK was measured spectrophotometrically at 320 nm using an Epoch BioTek microplate reader (BioTek Instruments, Inc., Winooski, VT, USA). The samples were run in triplicate and the results were expressed as mean ± SEM.

Experiment [2] has as its target T2, tryptophan 2,3-dioxygenase (TDO) (Homo sapiens, UniProt P48775).
T2 construct: purchased BPS Bioscience, Inc. (San Diego, CA, USA)
Briefly: Universal IDO1/IDO2/TDO Inhibitor Screening Assay Kit, TDO. The experiment is classed as biochemical. The conditions noted are these: read-out: Inhibition (%) TDO. The method, then:
as §1

T2 sequence (P48775 whole entry, species assumed): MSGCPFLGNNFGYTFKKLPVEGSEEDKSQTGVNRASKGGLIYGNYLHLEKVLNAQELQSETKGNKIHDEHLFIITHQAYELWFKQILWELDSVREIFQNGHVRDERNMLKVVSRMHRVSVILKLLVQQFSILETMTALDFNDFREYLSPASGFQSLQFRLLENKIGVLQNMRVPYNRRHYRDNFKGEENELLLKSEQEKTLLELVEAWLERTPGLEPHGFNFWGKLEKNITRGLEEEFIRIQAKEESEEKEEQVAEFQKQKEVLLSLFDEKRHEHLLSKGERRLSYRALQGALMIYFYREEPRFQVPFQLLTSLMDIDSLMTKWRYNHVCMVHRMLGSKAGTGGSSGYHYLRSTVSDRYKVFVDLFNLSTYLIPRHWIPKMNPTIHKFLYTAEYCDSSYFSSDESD

On to `NS(=O)(=O)NCCNc1nonc1C(=NO)Nc1ccc(F)c(Br)c1` [epacadostat, reference compound], for which the inhibition at 100 µg/mL in experiment [1] and in experiment [2] was under 10% throughout.

A word on the inhibition: it is the percentage by which the read-out fell short of the control.

The record behind these values is publication PMC8704315, “Lichen-Derived Compounds and Extracts as Biologically Active Substances with Anticancer and Neuroprotective Properties” (Pharmaceuticals, 2021).
